Experimental data as given in article PMC7901650, “Garcinoic Acid Is a Natural and Selective Agonist of Pregnane X Receptor” (Journal of Medicinal Chemistry, 2020).

What was measured:
[1] = test system: HT29-MTX; assay: PXR and CYP3A4 protein expression in HT29-MTX cells; type: cell-based; details: 24 h, 1 to 25 μM
Method: HepG2 (human hepatoma cell line; ATCC HB-8065, Manassas, VA) and HepaRG (HPRGC10, Thermo Fisher Scientific) cells were maintained in culture as previously described.[47] Experiments were performed between passages 2 and 10. Cell viability, clonogenic activity, and apoptotic cell death were assessed as previously described (see Figure S2).[58],[59] HT29 human colorectal adenocarcinoma cells (ATCC HTB-38) and its mucous-secreting HT29-MTX subclone (Sigma-Aldrich) were used as intestinal cell models. HT29 cells were cultured in RPMI (Invitrogen; Life Technologies) containing 10% FBS (v/v) and 1% (v/v) L-glutamine. HT29-MTX cells (from Sigma-Aldrich) were cultured in DMEM supplemented with 2 mM glutamine, 1% nonessential amino acids, and 10% FBS. […]
Cells were harvested and lysed in ice-cold cell lysis buffer (Cell Signaling Technology) and 20 μL/mL protease inhibitor cocktail (Roche). […] After incubation in ice for 1 h and centrifugation (12 000 rpm for 20 min at 4 °C), the supernatant was recovered, and total proteins were quantified by the BCA assay kit (Pierce, Thermo Fisher Scientific). […] The band intensity was analyzed using Gel Pro analyzer Software. […]
PXR and CYP3A4 protein was assessed by immunoblot (20 µg total protein loading) in HT29 cells (from ATCC) were cultured in RPMI (Invitrogen; Life Technologies) containing 10% FBS ( v/v) and 1% ( v/v) L-glutamine. […]

[2] = test system: PXR; assay: PXR, CYP3A4 (CYP3A11) expression in mouse liver and intestine after single bolus; type: in vivo; details: 24 h post-treatment
[3] = molecular target: T1, hPXR ligand binding domain (LBD) (Homo sapiens, UniProt O75469); assay: Isothermal titration calorimetry, binding to His-tagged hPXR LBD; details: ITC, 37 °C, pH 7.5
T1 construct: made in house; host or cells: E. coli BL21-Gold
T1 sequence (O75469 146-433 limits assumed): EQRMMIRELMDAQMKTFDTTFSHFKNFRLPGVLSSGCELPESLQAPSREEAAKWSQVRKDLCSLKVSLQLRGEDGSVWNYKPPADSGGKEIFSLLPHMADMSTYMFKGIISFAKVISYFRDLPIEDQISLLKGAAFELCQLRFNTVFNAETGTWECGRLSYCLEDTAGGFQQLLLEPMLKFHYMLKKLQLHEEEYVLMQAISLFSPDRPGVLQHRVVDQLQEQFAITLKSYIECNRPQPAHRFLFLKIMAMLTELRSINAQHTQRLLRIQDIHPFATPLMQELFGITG
Source text: To obtain direct proof of interaction with the hPXR ligand binding domain (LBD), we performed an isothermic titration calorimetry (ITC) experiment using His-tagged hPXR LBD protein in solution (Figure 1C). ITC measures the affinity, Ka, the Gibbs energy (ΔG = −RT ln Ka), and the changes in enthalpy, ΔH, and entropy, ΔS, associated with the binding of the FKK compounds (ΔG = −RT ln K = ΔH – TΔS). Enthalpic and entropic contributions to binding affinity define the nature of the forces that drive the binding reaction.[40],[41]
ITC was performed using a VP-ITC microcalorimeter from MicroCal/Malvern Instruments (Northampton, MA). The protein and the ligands (in DMSO, 8% vol/vol final concentration) were prepared in 25 mM Hepes, pH 7.5 with 150 mM NaCl. In all of the experiments, the ligand solution was injected in 10-μL aliquots into the calorimetric cell containing PXR-LBD [3 μM] at 37 °C. The respective concentrations of GA (1), 2, and 5 in the syringe were 60 μM each. The heat evolved upon each injection of the ligands was obtained from the integral of the calorimetric signal. The heat associated with binding to PXR-LBD in the cell was obtained by subtracting the heat of dilution from the heat of reaction.

[4] = test system: HepG2 cells; assay: PXR, CYP3A4 and MDR1 expression in HepG2 cells; type: cell-based
Method: HepG2 (human hepatoma cell line; ATCC HB-8065, Manassas, VA) and HepaRG (HPRGC10, Thermo Fisher Scientific) cells were maintained in culture as previously described.[47] Experiments were performed between passages 2 and 10. Cell viability, clonogenic activity, and apoptotic cell death were assessed as previously described (see Figure S2).[58],[59] HT29 human colorectal adenocarcinoma cells (ATCC HTB-38) and its mucous-secreting HT29-MTX subclone (Sigma-Aldrich) were used as intestinal cell models. HT29 cells were cultured in RPMI (Invitrogen; Life Technologies) containing 10% FBS (v/v) and 1% (v/v) L-glutamine. HT29-MTX cells (from Sigma-Aldrich) were cultured in DMEM supplemented with 2 mM glutamine, 1% nonessential amino acids, and 10% FBS. Cells were maintained at 37 C in a humidified 5% (v/v) CO2 atmosphere chamber and were used between passages 10 and 20.
Cells were harvested and lysed in ice-cold cell lysis buffer (Cell Signaling Technology) and 20 μL/mL protease inhibitor cocktail (Roche). Murine tissues (10 mg each) were weighed and resuspended in 300 μL of PBS supplemented with NP40 (1:50) and a cocktail of protease inhibitors (Pierce, Thermo Fisher Scientific). After preliminary homogenation in a 1-mL potter, sonication was performed in ice (3 cycles of 15 s each with 1 min intervals). After incubation in ice for 1 h and centrifugation (12 000 rpm for 20 min at 4 °C), the supernatant was recovered, and total proteins were quantified by the BCA assay kit (Pierce, Thermo Fisher Scientific). […] The band intensity was analyzed using Gel Pro analyzer Software. […]
RNA was extracted using the RNeasy Plus Kit (QIAGEN, Valencia, CA) and quantified with Implen NanoPhotometer (GmbH Germany), and cDNA synthesis was carried out using SuperScript IV (Thermo Fisher Scientific, MA). […]

## C/C(=C\CC/C(C)=C/CC[C@]1(C)CCc2cc(O)cc(C)c2O1)CC/C=C(\C)C(=O)O [GA (1), (2E,6E,10E)-13-[(2R)-6-hydroxy-2,8-dimethyl-chroman-2-yl]-2,6,10-trimethyltrideca-2,6,10-trienoic acid]
[1]
  PXR and CYP3A4 protein expression: increase
[2]; 5 to 25 mg single bolus
  CYP3A4 (CYP3A11 in mice) protein expression in liver and intestine: increased
[2]; mice, 5 to 25 mg single bolus
  PXR mRNA in intestine: increased
  PXR protein and mRNA in liver tissue: dose-dependent stimulation effect
[2]; mice, single bolus
  PXR protein expression in intestine: not sufficient to significantly increase PXR protein expression
[3]
  N (stoichiometry): 0.9
  ΔG: -8.8 kcal/mol
  ΔH: -6.4 kcal/mol
  −TΔS: -2.4 kcal/mol
[3]; listed as 1
  ΔG: -8.8 kcal/mol
  ΔH: -6.4 kcal/mol
[4]; HepG2, 1 to 50 μM
  MDR1 gene expression: increased in a dose–dose-dependent manner
[4]; HepG2, 24 h, 1 and 25 μM
  CYP3A4 protein and mRNA expression: increased in a dose–dose-dependent manner
  PXR protein expression: increased in a dose–dose-dependent manner
